Oligonucleotides are written 5' to 3', each unit as a sugar letter and its base; * is a phosphorothioate linkage, no mark a phosphodiester; rarer units and linkages stand in square brackets, end groups in braces. Plain capitals give the bases only. d = 2'-deoxy (DNA)
Legend:
human TLR9 = molecular target: T1, human TLR9 (Homo sapiens, UniProt Q9NR96); test: Stimulation of TLR9-transfected cells in vitro (luciferase readout); type: cell-based; details: quotient between highest value of all concentrations tested and medium control
T1 construct: expressed in transfected cells; host or cells: HEK 293
T1 sequence (Q9NR96 26-1032): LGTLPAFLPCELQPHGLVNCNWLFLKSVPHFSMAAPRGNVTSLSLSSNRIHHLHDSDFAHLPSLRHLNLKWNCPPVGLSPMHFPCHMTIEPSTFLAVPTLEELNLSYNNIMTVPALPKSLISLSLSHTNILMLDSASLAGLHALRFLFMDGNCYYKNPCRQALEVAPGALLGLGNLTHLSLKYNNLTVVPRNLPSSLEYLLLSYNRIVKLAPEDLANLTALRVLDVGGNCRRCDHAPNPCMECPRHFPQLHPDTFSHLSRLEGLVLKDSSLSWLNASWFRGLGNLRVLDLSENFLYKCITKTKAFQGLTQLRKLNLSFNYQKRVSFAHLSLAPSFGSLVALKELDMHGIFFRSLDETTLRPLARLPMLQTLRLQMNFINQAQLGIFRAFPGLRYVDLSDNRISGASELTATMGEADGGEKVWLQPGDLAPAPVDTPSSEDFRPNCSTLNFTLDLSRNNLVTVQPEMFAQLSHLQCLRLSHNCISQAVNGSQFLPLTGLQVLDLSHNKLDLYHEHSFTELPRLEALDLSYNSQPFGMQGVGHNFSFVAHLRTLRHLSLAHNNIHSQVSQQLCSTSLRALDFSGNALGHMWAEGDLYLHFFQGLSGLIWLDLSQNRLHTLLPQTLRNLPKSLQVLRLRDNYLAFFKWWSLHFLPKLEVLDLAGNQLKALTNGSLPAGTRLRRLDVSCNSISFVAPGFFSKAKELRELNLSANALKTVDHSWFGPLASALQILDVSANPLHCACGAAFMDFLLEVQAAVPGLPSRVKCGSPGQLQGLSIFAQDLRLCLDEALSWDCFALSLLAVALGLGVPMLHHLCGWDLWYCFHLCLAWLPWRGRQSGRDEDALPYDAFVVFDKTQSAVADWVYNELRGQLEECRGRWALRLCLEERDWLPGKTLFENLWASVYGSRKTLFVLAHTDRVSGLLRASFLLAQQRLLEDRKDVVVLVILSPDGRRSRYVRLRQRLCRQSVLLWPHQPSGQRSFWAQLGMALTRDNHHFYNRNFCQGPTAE
Description: Methods: HEK 293 cells transfected with human TLR9 were incubated with SEQ ID NO:1, SEQ ID NO:2, SEQ ID NO:3, SEQ ID NO:4, SEQ ID NO:5, or SEQ ID NO:6 for 16 hours. The signal was determined by a luciferase readout.
The EC50 was calculated using Sigma Plot (SigmaPlot 2002 for Windows version 8.0). The maximal stimulation index (max SI) was calculated as the quotient between the highest value of all concentrations tested for any ODN and the medium control.

BALB/c mice [1] = test: Antigen-induced IgE and IgG2a production in the mouse; type: in vivo; details: i.p. 1-1000 μg/kg, serum study day 18, FIG. 19
Description: Methods: Mice (male BALB/c) were sensitized on study days 0 and 7 with antigen (ovalbumin, 10 μg, i.p.) and aluminum hydroxide adjuvant Pierce Alum, i.p.). Mice received SEQ ID NO:2 or SEQ ID NO:7 on study days −2, 0, 5 and 7 (i.e. two days before each sensitization and on the day of sensitization). Mice were bled by cardiac puncture on study day 18. Serum was collected by centrifugation and assayed by ELISA for ovalbumin-specific IgE and IgG2a.

BALB/c mice [2] = type: in vivo; details: mouse
guinea pigs = test: Guinea pig AHR protocol (airway resistance and lung compliance); type: in vivo; details: guinea pigs, 10, 30, 100 or 300 μl/kg, i.t.
Description: Male guinea pigs were sensitized on study days 0 and 4 with antigen (ovalbumin, 0.5 ml, 1% OVA i.p./s.c.) with aluminum hydroxide adjuvant. Guinea pigs were antigen challenged by exposure to inhaled ovalbumin aerosol, twice each week for two consecutive weeks. The first challenge was on study day 13. CpG ODN or vehicle (saline, 20 μl) were administered intranasally once each week, two days before the first antigen challenge of the week. Airways hyperreactivity was assessed 24 hours after the last antigen challenge by measuring bronchoconstriction (increase in airway resistance) to intravenous methacholine. For each animal, a dose-response curve to methacholine was obtained, and airway reactivity was quantified as the area under the curve.
Method: Guinea pigs were sensitized as described in Example 10. The first challenge was on study day 13. Guinea pigs were given intranasally either carrier (saline), OVA alone, of concentrations of SEQ ID NO:7 of 10 μl/kg, 30 μl/kg, 100 μl/kg, or 300 μl/kg, i.t.
Method: Guinea pigs were sensitized as described in Example 10. The first challenge was on study day 13. Guinea pigs were given intranasally either carrier (saline), OVA alone, of concentrations of SEQ ID NO:2 of 10 μl/kg, 30 μl/kg, 100 μl/kg, or 300 μl/kg, i.t.

mouse splenocytes = test: Cytokine secretion from mouse splenocytes by SEQ ID NO: 2 and fragments; type: cell-based; details: 0.01-10 μg/ml, 36 hours, FIGS. 43-45
Description: Spleens were removed from 6 mice (male, BALB/c). The splenocytes from each spleen were separated by pushing gently through a cell sieve (70 μm pore size), and were then pooled. Splenocytes were added to wells of culture plates. 1×10^7 cells in a volume of 900 μl medium were added to each well. Medium was RPMI 1640 containing 10% fetal bovine serum. 100 μl aliquots of CpG ODN solutions in medium were added to each well to give final concentrations in the wells of 0.01-10 μg/ml. After incubation for 36 hours (37 C, 5% CO2 incubator), culture supernatants were collected and assayed for cytokine concentrations using either the Luminex multiplex assay (IFNγ, IP-10, IL-10, IL-6, TNFα) or ELISA (IFNα).
The aim of this study was to investigate the biological activity of selected fragments (putative metabolites) of SEQ ID NO: 2. Activity was determined by measuring the ability of each fragment to induce secretion of TLR9-associated cytokines from mouse splenocytes […].
Stimulation of cytokine secretion by fragments of SEQ ID NO.: 2 is shown in the attached FIGS. 43-45. The oligonucleotides examined are depicted in the Figures by SEQ ID NO and include SEQ ID NO: 15-23. The concentration of oligonucleotide used to produce a particular data point is depicted along the X-axis (μg/ml).

[3] = 100 μg/kg intranasal, both virus-infected and antigen-challenged

T*C_G*T*C_G*T*C_G*T*T*C_G*G*C*G*C_G*C*G*C*C*G (DNA dT*dCdG*dT*dCdG*dT*dCdG*dT*dT*dCdG*dG*dC*dG*dCdG*dC*dG*dC*dC*dG) [SEQ ID NO: 2, Semi-soft class C CpG ODN]
max SI (maximal stimulation index) (human TLR9): 20
production of antigen (ovalbumin)-specific IgE (BALB/c mice [1]): suppressed
production of antigen (ovalbumin)-specific IgG2a (BALB/c mice [1]): potentiated
antigen-induced eosinophilia (BALB/c mice [2]; 100 μg/kg intranasal, antigen challenge alone, FIG. 20): significantly suppress
exacerbated accumulations of neutrophils and mononuclear cells (BALB/c mice [2]; [3]): both suppressed
exacerbated airways inflammation (BALB/c mice [2]; [3]): significantly suppressed
virus-induced neutrophilia (BALB/c mice [2]; 100 μg/kg intranasal, virus infection alone, FIG. 20): did not suppress
loss of body weight (BALB/c mice [2]; both virus-infected and antigen-challenged): significantly suppressed
AUC-resistance (airway reactivity, area under the dose-response curve) (guinea pigs): dose-dependent reduction
induction of TLR9-associated cytokines IFNα, IFNγ, IP-0, IL-6, IL-10 and TNFα (mouse splenocytes): induced
